Test results as given in patent US20210261495A1, “COMPOSITIONS AND METHODS OF USING ITACONIC ACID DERIVATIVES” (ERGON PHARMACEUTICALS, LLC, priority 2018, published 2021).

Legend:
[1] = system: C6-IRG1-9 rat glioma cells; assay: C6-IRG1-9 rat glioma cell proliferation, CyQuant; type: cell-based; details: various concentrations, 48 hrs
Description: Tumor Cell Proliferation Assay. This assay was used to assess the anti-tumor properties of a therapeutic agent in vitro. In a typical proliferation assay, cells were cultured to near confluency in the appropriate media. Subsequently, the cells were trypsinized and plated onto 96-well plates at 2,000 or 5,000 cell per well. The cells were cultured for 48 to 96 hours in the presence or absence of the therapeutic agent. Cell proliferation was then determined using spectrophotometry (MTT assay, BrdU assay) or fluorimetry (Cyquant assay).
Inhibition of C6-IRG1-9 Rat Glioma cell proliferation. C6-IRG1-9 cells are rat C6 glioma cells that have been transfected to overexpress IRG1. Overexpression of IRG1 is maintained by culturing the cells in DMEM media containing 0.55 μg/mL puromycin. For the proliferation assays, the cells were plated onto a 96-well plate at a density of 2,000 cells/well. The cells were allowed to adhere overnight; they were subsequently treated with various concentrations of compounds of Formula (2) for 48 hrs. At the end of the incubation period, the number of cells is assessed using the CyQuant Cell Proliferation kit (Thermo Fisher) according to the manufacturer's instructions. The results, shown in FIG. 3, indicate that compounds of Formula (2) are able to reduce or abrogate growth of C6-IRG1-9 cells. In FIG. 3, cell proliferation is expressed as % Untreated Control, defined as: […]
where t is the number of cells present in a treated well at the end of the incubation period, c is the number of cells present in an untreated well at the end of the incubation period, and s is the initial number of cells in the wells prior to initiation of treatment.

H3K4me3 = assay: Epigenetic modification: H3K4me3 Western immunoblotting in TCR-activated hCD8+ T cells; type: cell-based, human; details: 10 μM, 72 hrs
Description: Epigenetic Modifications. The ability of a therapeutic agent to alter acetylation and/or methylation of histones was assessed by Western Immunoblotting. Briefly, immune and other type cells were collected after being exposed to the therapeutic agent or vehicle control for a specific period of time, typically 24-72 hrs. They were then lysed and cell lysates from control and treated cells contained equal amounts of proteins were subjected to SDS-PAGE electrophoresis. The presence of acetylated and methylated histone sites was determined by Western Immunoblotting using appropriate antibodies.
Epigenetic Modification. TCR-activated hCD8^+ T cells were exposed to 0 or 10 μM Compound (6) for 72 hrs prior to lysing. Equal amounts of cell lysates were subjected to gel electrophoresis and Western immunoblotting against trimethylated lysine site 4 of histone 3 (H3K4me3). The experiment also included cell lysates from naïve cells. Image J was used for protein quantification. Western immunoblotting against histone 3 (H3) was also performed for normalization purposes. […] Exposure of the hCD8^+ T cells to 10 μM Compound (6) led to the depletion of trimethylated H3K4. H3K4me3 is commonly associated with activation of transcription.

hCD8^+ T cells = assay: hCD8+ T cell differentiation into effector T cells: GZMB release, ELISA; type: cell-based, human; details: for Granzyme B (% Control): 72 hrs, normalized per number of cells
Description: Differentiation of T Cells. The ability of T cells to differentiate from a naïve to an effector state was assessed by measuring the levels of IFNγ or GZMB synthesis following activation of the cells using a cocktail of anti-CD2/anti-CD3/anti-CD28 antibodies. Expression of IFNγ, GZMB, and other effector cytokines was measured by determining their concentration in the conditioned media 24-72 hrs after initiation of activation or by estimating the % cells expressing these cytokines using fluorescence-activated cell sorting (FACS).
Augmentation of hCD8^+ T Cell Differentiation into Effector T Cells. Naïve CD8+ T cells were isolated from human buffy coats using magnetic separation and the appropriate kit from Miltenyi Biotec. Cells were then activated using a cocktail of anti-CD2/anti-CD3/anti-CD28 antibodies. Differentiation of the cells into effector T cells was assessed by determining the levels of IFNγ and GZMB released into the media at 24 and 72 hrs, respectively using appropriate ELISA kits. Cytokine concentrations were normalized per number of cells present and expressed as % Untreated Control.

TNFα = assay: In vitro inflammation assay: TNFα secretion from LPS-stimulated hMDMs, ELISA; type: cell-based, human; details: concentrations ≥500 μM, 1 μg/mL LPS, 6 h
Description: In Vitro Inflammation Assay. In vitro inflammation was assessed by measuring the concentration of TNFα in the conditioned media of macrophages stimulated with 0.1-1 μg/mL LPS in the presence or absence of the compound of interest after 4-6 hrs.
Inhibition of TNFα secretion. hMDMs were pretreated with various concentrations of Compound (6) for 15 min and then stimulated with 1 μg/mL LPS. Conditioned media were collected 6 h later and TNFα concentrations were determined by ELISA.

Structure (SMILES): O=C(O)/C(=C\c1ccc(F)cc1)C(Cc1ccccc1)C(=O)O (stereo not drawn) [Compound (6), 2-benzyl-3-[(4-flurophenyl)methylidene]butanedioic acid]
- proliferation of C6-IRG1-9 rat glioma cells [1]: inhibition of proliferation
- trimethylated H3K4 (H3K4me3/H3) (H3K4me3): depletion
- Granzyme B (% Control) (hCD8^+ T cells; 0.1 nM): 117 % Control
- Granzyme B (% Control) (hCD8^+ T cells; 1 nM): 165 % Control
- Granzyme B (% Control) (hCD8^+ T cells; 10 nM): 504 % Control
- Granzyme B (% Control) (hCD8^+ T cells; 100 nM): 276 % Control
- Granzyme B (% Control) (hCD8^+ T cells; 10 μM): 360 % Control
- production of GZMB (hCD8^+ T cells; low concentrations): increase production
- secretion of TNFα (TNFα): reduced secretion
